Values after ≈ are worked out from the molar mass of the structure shown.
Tests used:
Solubility (SolRank) = type: physicochemical; details: pH 7.4
PAMPA = type: in vitro ADME; details: pH 7.4
[1] = Caco-2 permeability assay; type: in vitro ADME; details: human
[2] = type: in vitro ADME
[3] = type: in vitro ADME; remark: listed apart in the source
[4] = Plasma protein binding, mouse; type: in vitro ADME; details: read-out: Plasma protein binding (% bound) mouse (converted)
[5] = Plasma protein binding, human; type: in vitro ADME; details: read-out: Plasma protein binding (% bound) human (converted)
in vivo = experiment: in vivo
Method: Later, this drug served as the parental compound for the generation of novel covalently binding CDK7-directed warheads (Figure 2A, panels a–h). To reveal LDC4297, a chemical library was designed in silico for the targeting of kinases and was applied for screening against human CDK7–cyclin H–MAT1 by the use of in vitro kinase assays. […] In particular, a kinome-wide analysis with 333 individual kinases was performed to assess compound selectivity in vitro.
(A) Chemical linkage of an acceptor for the Michael 1,4 addition reaction was performed to generate QRS compounds 6, 7, and 9. Through the covalent binding of host target CDK7, a block of virus-supportive functions was achieved, and further details on this antiviral strategy were described elsewhere (a,b; c,d, this study, and Yu et al., in preparation; d–f; f–h). (B) Determination of in vitro eADME parameters (early […]-distribution-metabilism-excretion) and pharmacokinetics (PK) parameters, including mean plasma concentrations in vivo (male CD-1® mice).

HCMV AD169-GFP = system: HCMV AD169-GFP; parameters: method as in PMID 25624324; details: read-out: antiviral EC50 value (HCMV); cited from earlier work
human CDK7–cyclin H–MAT1 = system: human CDK7–cyclin H–MAT1; parameters: method as in PMID 25624324; details: cited from earlier work
CDK7–cyclin H–MAT1 = target: T1, CDK7–cyclin H–MAT1 (Homo sapiens, UniProt P50613); parameters: method as in PMID 25624324; details: kinome-wide panel of 333 kinases; cited from earlier work
T1 construct: purchased Invitrogen PR6749B

HCMV-encoded vCDK/pUL97 = system: HCMV-encoded vCDK/pUL97; parameters: method as in PMID 37591314; details: cited from earlier work
[6] = male, CD-1, mouse, in vivo, po, 100 mg/kg

T1 sequence (P50613 whole entry): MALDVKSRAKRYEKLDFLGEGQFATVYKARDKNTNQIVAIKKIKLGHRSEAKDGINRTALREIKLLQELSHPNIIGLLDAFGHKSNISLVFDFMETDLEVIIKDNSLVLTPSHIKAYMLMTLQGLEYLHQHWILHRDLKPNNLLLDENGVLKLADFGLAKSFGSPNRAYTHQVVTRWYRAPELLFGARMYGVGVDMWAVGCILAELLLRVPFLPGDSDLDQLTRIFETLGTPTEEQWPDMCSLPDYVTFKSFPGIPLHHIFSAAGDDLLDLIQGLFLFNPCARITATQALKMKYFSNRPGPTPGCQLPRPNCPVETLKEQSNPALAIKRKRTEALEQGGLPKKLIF
T1 sequence (P51946 whole entry partner): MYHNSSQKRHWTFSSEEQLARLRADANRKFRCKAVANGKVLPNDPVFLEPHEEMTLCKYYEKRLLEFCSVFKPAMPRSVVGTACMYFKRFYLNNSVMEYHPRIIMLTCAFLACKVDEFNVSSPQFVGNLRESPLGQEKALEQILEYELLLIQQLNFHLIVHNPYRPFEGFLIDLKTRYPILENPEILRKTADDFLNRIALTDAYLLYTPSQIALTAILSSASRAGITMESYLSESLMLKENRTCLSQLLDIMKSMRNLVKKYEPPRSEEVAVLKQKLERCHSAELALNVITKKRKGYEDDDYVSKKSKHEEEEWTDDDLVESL
T1 sequence (P51948 whole entry partner): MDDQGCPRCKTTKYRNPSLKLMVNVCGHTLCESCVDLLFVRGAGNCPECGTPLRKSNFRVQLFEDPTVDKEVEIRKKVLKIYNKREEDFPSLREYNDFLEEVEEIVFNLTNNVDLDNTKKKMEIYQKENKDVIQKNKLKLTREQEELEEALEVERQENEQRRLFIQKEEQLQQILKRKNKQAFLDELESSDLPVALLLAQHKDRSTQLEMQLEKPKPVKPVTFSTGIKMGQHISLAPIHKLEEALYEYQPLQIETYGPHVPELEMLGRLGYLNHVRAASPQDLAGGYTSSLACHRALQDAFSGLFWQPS

## CC(C)c1cnn2c(NCc3ccccc3-n3cccn3)nc(OC3CCCNC3)nc12 (centres unmarked) [LDC4297]
Solubility (SolRank)
  solubility: 373 µM (≈ 162 µg/mL)
PAMPA
  PAMPA (% Flux): 76.25 % Flux
[1]; A→B
  Papp A→B: 15.4 ×10⁻⁶ cm/s
[1]; efflux ratio, read-out: Caco-2 permeability B→A / A→B
  efflux ratio: 1.57
[2]
  Plasma stability (% remain) mouse: 100.0 % remain
[3]
  Plasma stability (% remain) human: 91.6 % remain
[4]
  fraction unbound: 0.0951
[5]
  fraction unbound: 0.142
In vivo; [6]
  AUC(0-inf): 3620 ng·h/mL
  AUC(0-t): 3520 ng·h/mL
  Cmax: 1300 ng/mL
  Tmax: 0.5 h
  bioavailability: 97.7%
  half-life: 1.6 h
  tz: 8 h
In vivo; male, CD-1, mouse, in vivo, po, 100 mg/kg, Cz, mouse 100 mg/kg p.o.
  concentration at 8 h: 43.2 ng/mL
In vivo; male, CD-1, mouse, in vivo, po, 100 mg/kg, Mean plasma concentration, mouse 100 mg/kg p.o., sampling time 0 min
  concentration at 0 min: 0 ng/mL
In vivo; male, CD-1, mouse, in vivo, po, 100 mg/kg, Mean plasma concentration, mouse 100 mg/kg p.o., sampling time 30 min
  concentration at 30 min: > 1200 ng/mL
In vivo; male, CD-1, mouse, in vivo, po, 100 mg/kg, Mean plasma concentration, mouse 100 mg/kg p.o., sampling time 90 min
  concentration at 90 min: 713 ± 411 ng/mL
In vivo; male, CD-1, mouse, in vivo, po, 100 mg/kg, Mean plasma concentration, mouse 100 mg/kg p.o., sampling time 240 min
  concentration at 240 min: 373 ± 108 ng/mL
In vivo; male, CD-1, mouse, in vivo, po, 100 mg/kg, Mean plasma concentration, mouse 100 mg/kg p.o., sampling time 480 min
  concentration at 480 min: 43.2 ± 44 ng/mL
In vivo; mouse 100 mg/kg p.o., sampling time 30 min
  Mean plasma concentration: 1297.6 ± 678.0 ng/mL
HCMV AD169-GFP
  EC50: 24.5 ± 1.3 nM
Human CDK7–cyclin H–MAT1
  IC50: < 5 nM
CDK7–cyclin H–MAT1
  residual activity in the presence of LDC4297: 2%
HCMV-encoded vCDK/pUL97
  secondary targeting activity against vCDK/pUL97: lack of a secondary targeting activity

From publication PMC10892818, “An Antiherpesviral Host-Directed Strategy Based on CDK7 Covalently Binding Drugs: Target-Selective, Picomolar-Dose, Cross-Virus Reactivity” (Pharmaceutics, 2024)
